Source: ChEMBL document CHEMBL1131650, “Reactions of 1-methylbenzimidazole derivatives with m-chloroperoxybenzoic acid” (Bioorg Med Chem Lett, 1998)

Experiment: Compound was evaluated for dissociation constant (pKa)
Format: physicochemical

Structure (SMILES) | pKa
Cc1cc2ncn(C)c2cc1C | 6
Cn1cnc2cc([N+](=O)[O-])c([N+](=O)[O-])cc21 | 1.6
Cn1cnc2ccccc21 | 5.6
Cn1cnc2ccc([N+](=O)[O-])cc21 | 3.35
Cc1ccc2ncn(C)c2c1 | 5.7
Cc1ccc2c(c1)ncn2C | 5.65
Cn1cnc2cc([N+](=O)[O-])ccc21 | 3.28
